The values below come from patent US20240101531A1, “PYRIDINAMINE DERIVATIVES AND THEIR USE AS POTASSIUM CHANNEL MODULATORS” (Xenon Pharmaceuticals Inc., priority 2022, published 2024).

Where a name gives a salt, the structure may show the parent alone. A value given as a limit tells only on which side of the number the result lay.

The experiment addresses human KV7.2/KV7.3 (Homo sapiens (Human), UniProt O43525+O43526). Kind of experiment: Potassium flux assay (IPG-2 AM dye). The experiment is classed as cell-based. The settings on record: TREX HEK 293 or HEK 293 cells expressing human KV7.2/KV7.3; arithmetic mean values. The method, boiled down: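 HEK 293 or TREX HEK 293 cells stably expressing human KV7.2/KV7.3 (tetracycline-induced where needed), loaded with IPG-2 AM, then compound for 20 min at room temperature. Flux triggered by K challenge buffer (10 mM KCl, pH 7.4), read at 530/558 nm; EC50 from 16-point 2-fold series from 30 μM, normalised to DMSO and reference modulator.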

With `Clc1ccc(Nc2nccc3cc(OCc4ncco4)ccc23)cn1` [Example 211, N-(6-chloropyridin-3-yl)-6-(oxazol-2-ylmethoxy)isoquinolin-1-amine], the EC50 (usually the concentration that produces a half-maximal response) is 1000 to 10000 nM.
`Clc1ccc(Nc2nccc3cc(OCc4nccs4)ccc23)cn1` [Example 212, N-(6-chloropyridin-3-yl)-6-(thiazol-2-ylmethoxy)isoquinolin-1-amine]: the EC50 lay in the range of 1000 to 10000 nM.
As for `Clc1ncc(Nc2nccc3cc(OCC4COC4)ccc23)cn1` [Example 213, N-(2-chloropyrimidin-5-yl)-6-(oxetan-3-ylmethoxy)isoquinolin-1-amine], the EC50 was < 1000 nM.
As to `Cc1ccc(Nc2nccc3cc(OCC4COC4)ccc23)cn1` [Example 214, N-(6-methylpyridin-3-yl)-6-(oxetan-3-ylmethoxy)isoquinolin-1-amine], the EC50 lay in the range of 1000 to 10000 nM.
Next, `Clc1ccc(Nc2nccc3cc(OCc4ccon4)ccc23)cn1` [Example 215, N-(6-chloropyridin-3-yl)-6-(isoxazol-3-ylmethoxy)isoquinolin-1-amine]: < 1000 nM; `Clc1ccc(Nc2nccc3cc(OC4CCCOC4)ccc23)cn1` (stereo not shown) [Example 216, N-(6-chloropyridin-3-yl)-6-((tetrahydro-2H-pyran-3-yl)oxy)isoquinolin-1-amine]: < 1000 nM; `Clc1ccc(Nc2nccc3cc(OCC4CCCO4)ccc23)cn1` (stereo not shown) [Example 217, N-(6-chloropyridin-3-yl)-6-((tetrahydrofuran-2-yl)methoxy)isoquinolin-1-amine]: 1000 to 10000 nM.
As to `Cc1ncc(Nc2nccc3cc(OCC4(C)COC4)ccc23)cn1` [Example 218, 6-((3-methyloxetan-3-yl)methoxy)-N-(2-methylpyrimidin-5-yl)isoquinolin-1-amine], the EC50 was < 1000 nM.
The figure for `COC1(COc2ccc3c(Nc4cnc(C)nc4)nccc3c2)COC1` [Example 219, 6-((3-methoxyoxetan-3-yl)methoxy)-N-(2-methylpyrimidin-5-yl)isoquinolin-1-amine formate] is 1000 to 10000 nM; for `COC1(COc2ccc3c(Nc4ccc(Cl)nc4)nccc3c2)COC1` [Example 220, N-(6-chloropyridin-3-yl)-6-((3-methoxyoxetan-3-yl)methoxy)isoquinolin-1-amine] it is < 1000 nM; for `Cc1ncc(Nc2nccc3cc(OCC4COC4)ccc23)cn1` [Example 221, N-(2-methylpyrimidin-5-yl)-6-(oxetan-3-ylmethoxy)isoquinolin-1-amine] it is 1000 to 10000 nM.
Turning to `Cc1ncc(Nc2nccc3cc(OCc4ccon4)ccc23)cn1` [Example 222, 6-(isoxazol-3-ylmethoxy)-N-(2-methylpyrimidin-5-yl)isoquinolin-1-amine], the EC50 fell in the range of 1000 to 10000 nM.
With `Clc1ccc(Nc2nccc3cc(OCC4COC4)ccc23)cn1` [Example 223, N-(6-chloropyridin-3-yl)-6-(oxetan-3-ylmethoxy)isoquinolin-1-amine], the EC50 was < 1000 nM.
For the molecule `C[C@@](O)(COc1ccc2c(Nc3ccc(Cl)nc3)nccc2c1)C(F)(F)F` [Example 224, (R)-3-((1-((6-chloropyridin-3-yl)amino)isoquinolin-6-yl)oxy)-1,1,1-trifluoro-2-methylpropan-2-ol], the EC50 was < 1000 nM.
As for `C[C@](O)(COc1ccc2c(Nc3ccc(Cl)nc3)nccc2c1)C(F)(F)F` [Example 225, (S)-3-((1-((6-chloropyridin-3-yl)amino)isoquinolin-6-yl)oxy)-1,1,1-trifluoro-2-methylpropan-2-ol], the EC50 is 1000 to 10000 nM.
For `NC(COc1ccc2c(Nc3ccc(Cl)nc3)nccc2c1)C(F)(F)F` (stereo not shown) [Example 226, 6-(2-amino-3,3,3-trifluoropropoxy)-N-(6-chloropyridin-3-yl)isoquinolin-1-amine], the EC50 lay in the range of 1000 to 10000 nM.
In the case of `FC1(F)CN[C@@H](COc2ccc3c(Nc4ccc(Cl)nc4)nccc3c2)C1` [Example 227, (R)—N-(6-chloropyridin-3-yl)-6-((4,4-difluoropyrrolidin-2-yl)methoxy)isoquinolin-1-amine trifluoroacetate], the EC50 was 1000 to 10000 nM.
In the case of `Cc1ncc(Nc2nccc3cc(OCC4(C#N)COC4)ccc23)cn1` [Example 228, 3-(((1-((2-methylpyrimidin-5-yl)amino)isoquinolin-6-yl)oxy)methyl)oxetane-3-carbonitrile], the EC50 fell in the range of 1000 to 10000 nM.
Consider `Fc1c(OCC2CC2)ccc2c(Nc3ccc(Cl)nc3)nccc12` [Example 229, N-(6-chloropyridin-3-yl)-6-(cyclopropylmethoxy)-5-fluoroisoquinolin-1-amine], for which the EC50 lay within 1000 to 10000 nM.
As for `Clc1ccc(Nc2nccc3cc(NCC4CC4)ccc23)cn1` [Example 230, N^1-(6-chloropyridin-3-yl)-N^6-(cyclopropylmethyl)isoquinoline-1,6-diamine formate], the EC50 lay in the range of 10000 to 30000 nM.
On to `FC(F)(F)C1(COc2ccc3c(Nc4ccc(Cl)nc4)nccc3c2)CC1` [Example 231, N-(6-chloropyridin-3-yl)-6-((1-(trifluoromethyl)cyclopropyl)methoxy)isoquinolin-1-amine formate], for which the EC50 is < 1000 nM.
As to `Fc1c(NCC2CC2)ccc2c(Nc3ccc(Cl)nc3)nccc12` [Example 232, N^1-(6-chloropyridin-3-yl)-N^6-(cyclopropylmethyl)-5-fluoroisoquinoline-1,6-diamine], the EC50 was in the range of 1000 to 10000 nM.
As for `Cc1ncc(Nc2nccc3c(F)c(OCC4CC4)ccc23)cn1` [Example 233, 6-(cyclopropylmethoxy)-5-fluoro-N-(2-methylpyrimidin-5-yl)isoquinolin-1-amine], the EC50 fell in the range of 10000 to 30000 nM.
For the molecule `N#CC1(COc2ccc3c(Nc4ccc(Cl)nc4)nccc3c2)CC(F)(F)C1` [Example 234, 1-(((1-((6-chloropyridin-3-yl)amino)isoquinolin-6-yl)oxy)methyl)-3,3-difluorocyclobutane-1-carbonitrile], the EC50 is < 1000 nM.
As for `Cc1ncc(Nc2nccc3cc(OCC4(C#N)CC(F)(F)C4)ccc23)cn1` [Example 235, 3,3-difluoro-1-(((1-((2-methylpyrimidin-5-yl)amino)isoquinolin-6-yl)oxy)methyl)cyclobutane-1-carbonitrile formate], the EC50 was < 1000 nM.
`COCCOCCOc1ccc2c(Nc3ccc(Cl)nc3)nccc2c1` [Example 236, N-(6-chloropyridin-3-yl)-6-(2-(2-methoxyethoxy)ethoxy)isoquinolin-1-amine]: the EC50 is 1000 to 10000 nM.
As to `C[C@H](Oc1ccc2c(Nc3ccc(Cl)nc3)nccc2c1)c1ccncc1` [Example 237, (S)—N-(6-chloropyridin-3-yl)-6-(1-(pyridin-4-yl)ethoxy)isoquinolin-1-amine], the EC50 is < 1000 nM.
As for `OCC1(COc2ccc3c(Nc4ccc(Cl)nc4)nccc3c2)CC1` [Example 238, (1-(((1-((6-chloropyridin-3-yl)amino)isoquinolin-6-yl)oxy)methyl)cyclopropyl)methanol], the EC50 is < 1000 nM.
For `FC1(COc2ccc3c(Nc4ccc(Cl)nc4)nccc3c2)CCOCC1` [Example 239, N-(6-chloropyridin-3-yl)-6-((4-fluorotetrahydro-2H-pyran-4-yl)methoxy)isoquinolin-1-amine], the EC50 was < 1000 nM.
Next, `OC(COc1ccc2c(Nc3ccc(Cl)nc3)nccc2c1)C(F)(F)F` (stereo not shown) [Example 240, 3-((1-((6-chloropyridin-3-yl)amino)isoquinolin-6-yl)oxy)-1,1,1-trifluoropropan-2-ol]: 1000 to 10000 nM.
Consider `Cc1ncc(Nc2nccc3cc(OCc4cnoc4)ccc23)cn1` [Example 241, 6-(isoxazol-4-ylmethoxy)-N-(2-methylpyrimidin-5-yl)isoquinolin-1-amine], for which the concentration for a half-maximal effect (EC50) was < 1000 nM.
Next, `Clc1ncc(Nc2nccc3cc(OCc4cnoc4)ccc23)cn1` [Example 242, N-(2-chloropyrimidin-5-yl)-6-(isoxazol-4-ylmethoxy)isoquinolin-1-amine]: < 1000 nM; `Oc1ccc2c(Nc3cnc(Cl)nc3)nccc2c1` [Example 243, 1-((2-chloropyrimidin-5-yl)amino)isoquinolin-6-ol]: 10000 to 30000 nM.
Regarding `Cn1cc(CNc2ccc3c(Nc4ccc(Cl)nc4)nccc3c2)cn1` [Example 244, N′-(6-chloropyridin-3-yl)-N^6-((1-methyl-1H-pyrazol-4-yl)methyl)isoquinoline-1,6-diamine], the EC50 is 1000 to 10000 nM.
Regarding `CC1(CNc2ccc3c(Nc4ccc(Cl)nc4)nccc3c2)COC1` [Example 245, N′-(6-chloropyridin-3-yl)-N^6-((3-methyloxetan-3-yl)methyl)isoquinoline-1,6-diamine], the EC50 was in the range of 1000 to 10000 nM.
`CN(C)C(=O)/C=C/c1ccc2c(Nc3ccc(Cl)nc3)nccc2c1` [Example 246, (E)-3-(1-((6-chloropyridin-3-yl)amino)isoquinolin-6-yl)-N,N-dimethylacrylamide]: the EC50 was 1000 to 10000 nM.
Turning to `Fc1cc2c(Nc3ccc(Cl)nc3)nccc2cc1OCC1(F)CC1` [Example 247, N-(6-chloropyridin-3-yl)-7-fluoro-6-((1-fluorocyclopropyl)methoxy)isoquinolin-1-amine], the EC50 was in the range of 10000 to 30000 nM.
Turning to `Clc1ccc(Nc2nccc3cc(CNc4cn[nH]c4)ccc23)cn1` [Example 248, 6-(((1H-pyrazol-4-yl)amino)methyl)-N-(6-chloropyridin-3-yl)isoquinolin-1-amine], the EC50 was 1000 to 10000 nM.
Next, `Cn1cc(OCc2ccc3c(Nc4ccc(Cl)nc4)nccc3c2)cn1` [Example 249, N-(6-chloropyridin-3-yl)-6-(((1-methyl-1H-pyrazol-4-yl)oxy)methyl)isoquinolin-1-amine]: 1000 to 10000 nM; `CN(Cc1ccc2c(Nc3ccc(Cl)nc3)nccc2c1)c1cn[nH]c1` [Example 250, N-(6-chloropyridin-3-yl)-6-((methyl(1H-pyrazol-4-yl)amino)methyl)isoquinolin-1-amine]: < 1000 nM.
